Patent publication US10750742B2, “Pesticidally active pyrazole derivatives” (SYNGENTA PARTICIPATIONS AG, priority 2015, dated 2020)
Where two headings read alike, the source gives them in different places.

Legend:
Type in all cases: in vivo
Spodoptera littoralis = Spodoptera littoralis (Egyptian cotton leaf worm), cotton leaf disc spray test; details: foliar, 72 h, read-out: control (at least one of mortality, anti-feedant effect, growth inhibition); for percent control (mortality, anti-feedant effect or growth inhibition) at 200 ppm: application rate 200 ppm, L1 larvae, 3 days after infestation
Protocol: Spodoptera littoralis (Egyptian Cotton Leaf Worm)
Cotton leaf discs were placed on agar in 24-well microtiter plates and sprayed with aqueous test solutions prepared from 10′000 ppm DMSO stock solutions. After drying the leaf discs were infested with five L1 larvae. The samples were assessed for mortality, anti-feedant effect, and growth inhibition in comparison to untreated samples 3 days after infestation. Control of Spodoptera littoralis by a test sample is when at least one of mortality, anti-feedant effect, and growth inhibition is higher than the untreated sample.

Plutella xylostella = Plutella xylostella (diamond back moth), artificial diet test; details: 120 h, read-out: control (mortality and growth inhibition)
Protocol: Plutella xylostella (Diamond Back Moth):
24-well microtiter plates with artificial diet were treated with aqueous test solutions prepared from 10′000 ppm DMSO stock solutions by pipetting. After drying, the plates were infested with L2 larvae (10 to 15 per well). The samples were assessed for mortality and growth inhibition in comparison to untreated samples 5 days after infestation.

Diabrotica balteata = Diabrotica balteata (corn root worm), maize sprout test; details: 96 h, read-out: control (mortality and growth inhibition)
Protocol: Diabrotica balteata, (Corn Root Worm)
Maize sprouts, placed on an agar layer in 24-well microtiter plates were treated with aqueous test solutions prepared from 10′000 ppm DMSO stock solutions by spraying. After drying, the plates were infested with L2 larvae (6 to 10 per well). The samples were assessed for mortality and growth inhibition in comparison to untreated samples 4 days after infestation.

Euschistus heros = Euschistus heros (neotropical brown stink bug), soybean leaf test; details: 120 h, read-out: effect in at least one of the two categories (mortality or growth inhibition); for percent effect (mortality or growth inhibition) at 200 ppm: application rate 200 ppm, N2 nymphs, 5 days after infestation
Protocol: Euschistus heros (Neotropical Brown Stink Bug):
Soybean leaves on agar in 24-well microtiter plates were sprayed with aqueous test solutions prepared from 10′000 ppm DMSO stock solutions. After drying the leaves were infested with N2 nymphs. The samples were assessed for mortality and growth inhibition in comparison to untreated samples 5 days after infestation.

Myzus persicae [1] = assay: Myzus persicae (green peach aphid), sunflower leaf disc spray test; details: foliar, 144 h
Protocol: (§1) Myzus persicae (Green Peach Aphid):
Sunflower leaf discs were placed on agar in a 24-well microtiter plate and sprayed with test solutions at an application rate of 200 ppm. After drying, the leaf discs were infested with an aphid population of mixed ages. After an incubation period of 6 DAT, samples were checked for mortality. The following compounds gave at least 80% mortality of Myzus persicae: compounds 1,2, 3, 4, 5, 6, 11, 12, 15, 17, 18, 19, 20, 23, 24, 25, 26, 27, 30, 32, 33, 34 35, 41, 43, 44, 47, 50, 55, 58, 59, 60, 61, 62, 63, 64, 65 and 66.

Myzus persicae [2] = assay: Myzus persicae (green peach aphid), sucrose solution / Parafilm test; details: 120 h, test rate of 12 ppm, sucrose solution, 5 days after infestation, read-out: mortality
Description: as §1
Test compounds were applied by pipette into 24 well plates and mixed with Sucrose solution. Application rate: 12.5 ppm. The plates were closed with a stretched parafilm. A plastic stencil with 24 holes is placed onto the plate and infested pea seedlings were placed directly on the Parafilm. The infested plate is closed with a gel blotting paper and another plastic stencil and then turned upside down. 5 days after infestation the samples were checked on mortality.

Tetranychus urticae = Tetranychus urticae (two-spotted spider mite), bean leaf disc test; details: foliar, 192 h, read-out: control (mortality on mixed population, mobile stages)
Protocol: Tetranychus urticae (Two-Spotted Spider Mite):
Bean leaf discs on agar in 24-well microtiter plates were sprayed with aqueous test solutions prepared from 10′000 ppm DMSO stock solutions. After drying the leaf discs were infested with a mite population of mixed ages. The samples were assessed for mortality on mixed population (mobile stages) 8 days after infestation.

Thrips tabaci = Thrips tabaci (onion thrips), sunflower leaf disc test; details: foliar, 144 h, read-out: control (mortality)
Protocol: Thrips tabaci (Onion Thrips):
Sunflower leaf discs were placed on agar in 24-well microtiter plates and sprayed with aqueous test solutions prepared from 10′000 ppm DMSO stock solutions. After drying the leaf discs were infested with a thrips population of mixed ages. The samples were assessed for mortality 6 days after infestation.

[3] = application rate 200 ppm, L2 larvae, 5 days after infestation
[4] = application rate 200 ppm, L2 larvae, 4 days after infestation
[5] = application rate 200 ppm, mixed ages, 6 DAT, read-out: mortality
[6] = application rate 200 ppm, 8 days after infestation
[7] = application rate 200 ppm, mixed ages, 6 days after infestation

Cn1nc(OC(F)F)c(C(F)(F)F)c1-n1cc(-c2ccc(Cl)c(C(=O)NC3(C#N)CC3)c2)cn1 [compound 1]
≥ 80%: percent control (mortality, anti-feedant effect or growth inhibition) at 200 ppm (Spodoptera littoralis) | mortality at 200 ppm (Plutella xylostella; [3]) | mortality at 200 ppm (Diabrotica balteata; [4]) | percent effect (mortality or growth inhibition) at 200 ppm (Euschistus heros) | mortality at 200 ppm (Myzus persicae [1]; [5]) | mortality at 12 ppm (Myzus persicae [2])

COc1nn(C)c(-n2cc(-c3ccc(Cl)c(C(=O)NC4(C#N)CC4)c3)cn2)c1C(F)(F)F [compound 5]
≥ 80%: mortality at 200 ppm (Myzus persicae [1]; [5]) | mortality at 12 ppm (Myzus persicae [2])

Cn1nc(OCC(F)F)c(C(F)(F)F)c1-n1cc(-c2ccc(Cl)c(C(=O)NC3CC3)c2)cn1 [compound 24]
≥ 80%: percent control (mortality, anti-feedant effect or growth inhibition) at 200 ppm (Spodoptera littoralis) | mortality at 200 ppm (Plutella xylostella; [3]) | mortality at 200 ppm (Diabrotica balteata; [4]) | mortality at 200 ppm (Tetranychus urticae; [6]) | percent effect (mortality or growth inhibition) at 200 ppm (Euschistus heros) | mortality at 200 ppm (Myzus persicae [1]; [5]) | mortality at 12 ppm (Myzus persicae [2])

Cn1nc(OCCOC(F)(F)F)c(C(F)(F)F)c1-n1cc(-c2ccc(Cl)c(C(=O)NC3CC3)c2)cn1 [compound 34]
≥ 80%: percent control (mortality, anti-feedant effect or growth inhibition) at 200 ppm (Spodoptera littoralis) | mortality at 200 ppm (Plutella xylostella; [3]) | mortality at 200 ppm (Diabrotica balteata; [4]) | mortality at 200 ppm (Tetranychus urticae; [6]) | percent effect (mortality or growth inhibition) at 200 ppm (Euschistus heros) | mortality at 200 ppm (Myzus persicae [1]; [5]) | mortality at 12 ppm (Myzus persicae [2])

Cn1nc(OC(F)(F)CBr)c(C(F)(F)F)c1-n1cc(-c2ccc(Cl)c(C(=O)NC3(C#N)CC3)c2)cn1 [compound 41]
≥ 80%: percent control (mortality, anti-feedant effect or growth inhibition) at 200 ppm (Spodoptera littoralis) | mortality at 200 ppm (Plutella xylostella; [3]) | mortality at 200 ppm (Diabrotica balteata; [4]) | mortality at 200 ppm (Thrips tabaci; [7]) | mortality at 200 ppm (Tetranychus urticae; [6]) | percent effect (mortality or growth inhibition) at 200 ppm (Euschistus heros) | mortality at 200 ppm (Myzus persicae [1]; [5])

Cn1nc(OC(F)(F)C(F)Br)c(C(F)(F)F)c1-n1cc(-c2ccc(Cl)c(C(=O)NC3CC3)c2)cn1 (stereo not drawn) [compound 43]
≥ 80%: percent control (mortality, anti-feedant effect or growth inhibition) at 200 ppm (Spodoptera littoralis) | mortality at 200 ppm (Plutella xylostella; [3]) | mortality at 200 ppm (Diabrotica balteata; [4]) | mortality at 200 ppm (Thrips tabaci; [7]) | mortality at 200 ppm (Tetranychus urticae; [6]) | percent effect (mortality or growth inhibition) at 200 ppm (Euschistus heros) | mortality at 200 ppm (Myzus persicae [1]; [5])

Cn1nc(O/C(F)=C/C(F)(F)F)c(C(F)(F)F)c1-n1cc(-c2ccc(Cl)c(C(=O)NC3(C#N)CC3)c2)cn1 [compound 48]
≥ 80%: percent control (mortality, anti-feedant effect or growth inhibition) at 200 ppm (Spodoptera littoralis) | mortality at 200 ppm (Plutella xylostella; [3]) | mortality at 200 ppm (Diabrotica balteata; [4]) | mortality at 200 ppm (Thrips tabaci; [7]) | mortality at 200 ppm (Tetranychus urticae; [6]) | percent effect (mortality or growth inhibition) at 200 ppm (Euschistus heros) | mortality at 12 ppm (Myzus persicae [2])

Cn1nc(OC(F)(F)C(F)(C(F)=C(F)C(F)(F)F)C(F)(F)F)c(C(F)(F)F)c1-n1cc(-c2ccc(Cl)c(C(=O)NC3CC3)c2)cn1 (stereo not drawn) [compound 51]
≥ 80%: percent control (mortality, anti-feedant effect or growth inhibition) at 200 ppm (Spodoptera littoralis) | mortality at 200 ppm (Plutella xylostella; [3]) | mortality at 200 ppm (Diabrotica balteata; [4]) | mortality at 200 ppm (Thrips tabaci; [7]) | mortality at 200 ppm (Tetranychus urticae; [6]) | percent effect (mortality or growth inhibition) at 200 ppm (Euschistus heros) | mortality at 12 ppm (Myzus persicae [2])

Cn1nc(OC(F)=C(F)C(F)(F)F)c(C(F)(F)F)c1-n1cc(-c2ccc(Cl)c(C(=O)NC3CC3)c2)cn1 [compound 53]
≥ 80%: percent control (mortality, anti-feedant effect or growth inhibition) at 200 ppm (Spodoptera littoralis) | mortality at 200 ppm (Plutella xylostella; [3]) | mortality at 200 ppm (Diabrotica balteata; [4]) | mortality at 200 ppm (Thrips tabaci; [7]) | mortality at 200 ppm (Tetranychus urticae; [6]) | percent effect (mortality or growth inhibition) at 200 ppm (Euschistus heros) | mortality at 12 ppm (Myzus persicae [2])

Cn1nc(OC(F)(F)C(F)OC(F)(F)F)c(C(F)(F)F)c1-n1cc(-c2cnc(Cl)c(C(=O)NC3(C#N)CC3)c2)cn1 (stereo not drawn) [compound 61]
≥ 80%: percent control (mortality, anti-feedant effect or growth inhibition) at 200 ppm (Spodoptera littoralis) | mortality at 200 ppm (Plutella xylostella; [3]) | mortality at 200 ppm (Diabrotica balteata; [4]) | mortality at 200 ppm (Thrips tabaci; [7]) | mortality at 200 ppm (Tetranychus urticae; [6]) | percent effect (mortality or growth inhibition) at 200 ppm (Euschistus heros) | mortality at 200 ppm (Myzus persicae [1]; [5])

Cn1nc(OC(F)(F)C(F)OC(F)(F)F)c(C(F)(F)F)c1-n1cc(-c2cnc(Cl)c(C(=O)NC3CC3)c2)cn1 (stereo not drawn) [compound 62]
≥ 80%: percent control (mortality, anti-feedant effect or growth inhibition) at 200 ppm (Spodoptera littoralis) | mortality at 200 ppm (Plutella xylostella; [3]) | mortality at 200 ppm (Diabrotica balteata; [4]) | mortality at 200 ppm (Thrips tabaci; [7]) | mortality at 200 ppm (Tetranychus urticae; [6]) | percent effect (mortality or growth inhibition) at 200 ppm (Euschistus heros) | mortality at 200 ppm (Myzus persicae [1]; [5])

Cn1nc(SC(F)(F)F)c(Br)c1-n1cc(-c2ccc(Cl)c(C(=O)NC3CC3)c2)cn1 [compound 63]
≥ 80%: percent control (mortality, anti-feedant effect or growth inhibition) at 200 ppm (Spodoptera littoralis) | mortality at 200 ppm (Plutella xylostella; [3]) | mortality at 200 ppm (Diabrotica balteata; [4]) | mortality at 200 ppm (Thrips tabaci; [7]) | mortality at 200 ppm (Tetranychus urticae; [6]) | percent effect (mortality or growth inhibition) at 200 ppm (Euschistus heros) | mortality at 200 ppm (Myzus persicae [1]; [5])

Cn1nc(SC(F)(F)C(F)(F)C(F)(F)F)c(Br)c1-n1cc(-c2ccc(Cl)c(C(=O)NC3CC3)c2)cn1 [compound 64]
≥ 80%: mortality at 200 ppm (Spodoptera littoralis) | mortality at 200 ppm (Plutella xylostella) | mortality at 200 ppm (Diabrotica balteata) | mortality at 200 ppm (Thrips tabaci) | mortality at 200 ppm (Tetranychus urticae) | percent control (mortality or growth inhibition) at 200 ppm (Euschistus heros) | mortality at 200 ppm (Myzus persicae [1])

Cn1nc(OC(F)(F)C(F)C(F)(F)F)c(C(F)(F)F)c1-n1cc(-c2cnc(Cl)c(C(=O)NC3(C#N)CC3)c2)cn1 (stereo not drawn) [compound 65]
≥ 80%: mortality at 200 ppm (Plutella xylostella; [3]) | mortality at 200 ppm (Diabrotica balteata; [4]) | mortality at 200 ppm (Thrips tabaci; [7]) | mortality at 200 ppm (Tetranychus urticae; [6]) | percent effect (mortality or growth inhibition) at 200 ppm (Euschistus heros) | mortality at 200 ppm (Myzus persicae [1]; [5])

Cn1nc(OC(F)(F)C(F)C(F)(F)F)c(C(F)(F)F)c1-n1cc(-c2cnc(Cl)c(C(=O)NC3CC3)c2)cn1 (stereo not drawn) [compound 66]
≥ 80%: mortality at 200 ppm (Plutella xylostella; [3]) | mortality at 200 ppm (Thrips tabaci; [7]) | mortality at 200 ppm (Tetranychus urticae; [6]) | percent effect (mortality or growth inhibition) at 200 ppm (Euschistus heros) | mortality at 200 ppm (Myzus persicae [1]; [5])
